Data on 1 compound can be found in ChEMBL document CHEMBL4808217, “Design, Synthesis, and Characterization of 4-Aminoquinazolines as Potent Inhibitors of the G Protein-Coupled Receptor Kinase 6 (GRK6) for the Treatment of Multiple Myeloma” (J Med Chem, 2021).

The target of assay [1] is T1, G protein-coupled receptor kinase 6 (Homo sapiens, UniProt P43250). The assay can be described thus: Binding affinity to FLAG-tagged GRK6 in human KMS11 cells incubated for […] by ITDR assay. The assay is classed as cell-based, KMS-11.
T1 sequence (P43250 whole entry, the tested form may be a part): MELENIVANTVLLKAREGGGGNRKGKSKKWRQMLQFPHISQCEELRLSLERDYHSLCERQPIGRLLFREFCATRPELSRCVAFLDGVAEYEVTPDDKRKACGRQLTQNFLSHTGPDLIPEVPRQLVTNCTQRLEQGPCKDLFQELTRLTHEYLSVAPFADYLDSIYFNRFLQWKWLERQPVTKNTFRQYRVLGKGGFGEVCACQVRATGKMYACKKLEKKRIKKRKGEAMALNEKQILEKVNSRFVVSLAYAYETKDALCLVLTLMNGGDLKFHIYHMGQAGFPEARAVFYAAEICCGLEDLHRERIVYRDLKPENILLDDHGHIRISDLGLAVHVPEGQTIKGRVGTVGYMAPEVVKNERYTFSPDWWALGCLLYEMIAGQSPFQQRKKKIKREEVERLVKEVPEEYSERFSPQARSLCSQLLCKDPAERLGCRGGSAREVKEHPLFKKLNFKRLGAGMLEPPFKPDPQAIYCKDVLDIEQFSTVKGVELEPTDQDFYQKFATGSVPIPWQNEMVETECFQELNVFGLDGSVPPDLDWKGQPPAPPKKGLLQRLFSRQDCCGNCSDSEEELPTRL
Another assay addresses Focal adhesion kinase 1 (Homo sapiens, UniProt Q05397). The assay can be described thus: Inhibition of recombinant human FAK (411 to 686 residues) using EEEEYEEEEEEYY as substrate incubated for 40 mins in presence of [gamma-33ATP] by scintillation counting based radiometry assay.
A further assay deals with T2, Rhodopsin kinase GRK7 (Homo sapiens, UniProt Q8WTQ7).
T2 sequence (Q8WTQ7 whole entry): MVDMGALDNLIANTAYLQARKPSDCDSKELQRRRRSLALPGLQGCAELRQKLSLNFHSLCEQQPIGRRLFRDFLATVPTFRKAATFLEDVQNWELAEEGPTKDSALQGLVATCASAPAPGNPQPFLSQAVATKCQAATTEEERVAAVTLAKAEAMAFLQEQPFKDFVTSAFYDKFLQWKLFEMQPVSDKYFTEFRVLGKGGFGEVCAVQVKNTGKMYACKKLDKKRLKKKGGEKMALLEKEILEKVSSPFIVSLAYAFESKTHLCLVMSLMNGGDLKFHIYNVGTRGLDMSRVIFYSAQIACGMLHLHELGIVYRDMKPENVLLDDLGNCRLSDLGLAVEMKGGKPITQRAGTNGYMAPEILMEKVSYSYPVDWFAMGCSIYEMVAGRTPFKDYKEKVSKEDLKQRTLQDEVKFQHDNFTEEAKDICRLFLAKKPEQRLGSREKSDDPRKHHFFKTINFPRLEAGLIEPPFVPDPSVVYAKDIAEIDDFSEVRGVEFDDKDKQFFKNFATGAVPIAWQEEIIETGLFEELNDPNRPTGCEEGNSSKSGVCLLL
As to the kind of experiment: Inhibition of recombinant full length human GRK7 using casein as substrate incubated for 40 mins in presence of [gamma-33ATP] by scintillation counting based radiometry assay.

In assay [2] the target is Death-associated protein kinase 3 (Homo sapiens, UniProt O43293). The assay can be described thus: Inhibition of recombinant human ZIPK (1 to 290 residues) using KKLNRTLSFAEPG substrate incubated for 40 mins in presence of [gamma33P]ATP by scintillation counting based radiometry assay.
Chain of Death-associated protein kinase 3 (O43293 whole entry, the tested form may be a part): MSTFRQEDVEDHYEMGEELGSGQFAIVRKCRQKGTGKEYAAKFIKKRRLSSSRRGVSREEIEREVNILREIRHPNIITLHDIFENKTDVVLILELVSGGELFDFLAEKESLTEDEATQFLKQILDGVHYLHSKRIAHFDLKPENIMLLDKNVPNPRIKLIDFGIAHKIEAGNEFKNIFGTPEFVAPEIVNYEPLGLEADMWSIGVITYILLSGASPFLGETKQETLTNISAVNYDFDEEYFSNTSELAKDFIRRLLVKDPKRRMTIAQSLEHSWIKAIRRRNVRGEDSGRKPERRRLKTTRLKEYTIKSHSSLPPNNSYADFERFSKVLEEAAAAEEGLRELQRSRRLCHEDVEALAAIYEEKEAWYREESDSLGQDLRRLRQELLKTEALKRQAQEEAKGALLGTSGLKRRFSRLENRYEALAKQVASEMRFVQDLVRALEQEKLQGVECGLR
The target in another assay is T3, Aurora kinase A (Homo sapiens, UniProt O14965).
T3 sequence (O14965 whole entry): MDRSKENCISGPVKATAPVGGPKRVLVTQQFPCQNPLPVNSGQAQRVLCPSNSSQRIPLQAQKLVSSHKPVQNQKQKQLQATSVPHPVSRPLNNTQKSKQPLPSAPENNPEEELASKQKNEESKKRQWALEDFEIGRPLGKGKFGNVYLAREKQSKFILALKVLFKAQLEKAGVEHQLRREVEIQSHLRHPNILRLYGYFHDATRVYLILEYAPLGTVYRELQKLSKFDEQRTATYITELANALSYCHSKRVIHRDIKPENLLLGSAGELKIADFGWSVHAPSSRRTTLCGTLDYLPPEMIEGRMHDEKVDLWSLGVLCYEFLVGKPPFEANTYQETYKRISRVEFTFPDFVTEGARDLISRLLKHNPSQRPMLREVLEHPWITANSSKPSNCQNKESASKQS
The assay can be described thus: Inhibition of recombinant full length human Aurora A using LRRASLG as substrate incubated for 40 mins in presence of [gamma-33ATP] by radiometric scintillation counting method.

The target of assay [3] is T1, G protein-coupled receptor kinase 6. As to the kind of experiment: Inhibition of recombinant full-length human GRK6 using casein as substrate measured after 80 mins in presence of [gamma33P]ATP by radiometric scintillation counting method.
The target is the same in assay [4]. The assay can be described thus: Inhibition of human GRK6 using casein as substrate in presence of [gamma33P]ATP by radiometric hotspot kinase assay.
The target of assay [5] is Tyrosine-protein kinase JAK2 (Homo sapiens, UniProt O60674). As to the kind of experiment: Inhibition of recombinant human JAK2 (808 to end residues) using KTFCGTPEYLAPE as substrate incubated for 40 mins in presence of [gamma33P]ATP by radiometric scintillation counting analysis.
Chain of Tyrosine-protein kinase JAK2 (O60674 whole entry): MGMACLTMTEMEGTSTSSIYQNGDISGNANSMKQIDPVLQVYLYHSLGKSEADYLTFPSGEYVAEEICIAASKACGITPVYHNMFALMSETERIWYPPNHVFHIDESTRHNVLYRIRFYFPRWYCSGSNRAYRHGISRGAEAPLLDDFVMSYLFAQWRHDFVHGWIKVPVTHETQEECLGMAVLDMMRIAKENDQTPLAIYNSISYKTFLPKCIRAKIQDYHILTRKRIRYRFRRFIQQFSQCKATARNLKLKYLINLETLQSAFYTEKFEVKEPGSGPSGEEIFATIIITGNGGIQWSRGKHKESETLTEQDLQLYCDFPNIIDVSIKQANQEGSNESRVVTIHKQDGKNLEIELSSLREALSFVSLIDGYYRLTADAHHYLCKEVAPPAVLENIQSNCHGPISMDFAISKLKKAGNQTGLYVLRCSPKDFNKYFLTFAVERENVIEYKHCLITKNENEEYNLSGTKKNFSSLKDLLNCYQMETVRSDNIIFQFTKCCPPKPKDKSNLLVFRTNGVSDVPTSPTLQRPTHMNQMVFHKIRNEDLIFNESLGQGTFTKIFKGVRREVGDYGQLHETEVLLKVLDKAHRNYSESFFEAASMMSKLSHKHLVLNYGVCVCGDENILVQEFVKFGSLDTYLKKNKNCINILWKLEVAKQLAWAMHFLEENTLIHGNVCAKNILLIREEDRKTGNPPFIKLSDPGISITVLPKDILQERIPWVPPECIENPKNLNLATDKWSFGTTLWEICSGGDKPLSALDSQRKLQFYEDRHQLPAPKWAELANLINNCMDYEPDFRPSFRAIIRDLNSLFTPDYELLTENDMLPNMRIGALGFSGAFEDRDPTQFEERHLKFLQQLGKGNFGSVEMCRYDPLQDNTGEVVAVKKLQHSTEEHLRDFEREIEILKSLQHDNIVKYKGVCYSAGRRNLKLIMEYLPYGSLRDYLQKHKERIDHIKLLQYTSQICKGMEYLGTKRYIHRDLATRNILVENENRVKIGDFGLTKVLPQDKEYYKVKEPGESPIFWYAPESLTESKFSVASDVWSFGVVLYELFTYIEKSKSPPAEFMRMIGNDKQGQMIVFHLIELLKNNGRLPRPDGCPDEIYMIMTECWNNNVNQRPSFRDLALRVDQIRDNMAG
For another assay, the target named is T4, Rhodopsin kinase GRK1 (Homo sapiens, UniProt Q15835).
T4 sequence (Q15835 whole entry): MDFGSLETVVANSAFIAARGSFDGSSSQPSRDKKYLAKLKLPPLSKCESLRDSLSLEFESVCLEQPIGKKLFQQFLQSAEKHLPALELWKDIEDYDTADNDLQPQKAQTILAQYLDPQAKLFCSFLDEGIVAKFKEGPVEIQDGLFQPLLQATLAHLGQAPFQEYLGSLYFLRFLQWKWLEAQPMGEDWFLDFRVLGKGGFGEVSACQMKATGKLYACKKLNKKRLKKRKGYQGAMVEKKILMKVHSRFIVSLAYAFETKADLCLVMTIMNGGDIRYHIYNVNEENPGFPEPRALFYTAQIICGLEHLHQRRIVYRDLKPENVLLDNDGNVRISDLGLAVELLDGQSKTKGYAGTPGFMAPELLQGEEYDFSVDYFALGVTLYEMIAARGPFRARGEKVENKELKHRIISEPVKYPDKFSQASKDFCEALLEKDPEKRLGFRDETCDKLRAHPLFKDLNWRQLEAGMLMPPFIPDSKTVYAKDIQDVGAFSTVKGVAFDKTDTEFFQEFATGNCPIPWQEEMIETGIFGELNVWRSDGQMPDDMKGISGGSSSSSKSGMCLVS
As to the kind of experiment: Inhibition of human GRK1 using casein as substrate in presence of [gamma33P]ATP by radiometric hotspot kinase assay.

The target in assay [6] is G protein-coupled receptor kinase 4 (Homo sapiens, UniProt P32298). As to the kind of experiment: Inhibition of human GRK4 using casein as substrate in presence of [gamma33P]ATP by radiometric hotspot kinase assay.
Chain of G protein-coupled receptor kinase 4 (P32298 whole entry): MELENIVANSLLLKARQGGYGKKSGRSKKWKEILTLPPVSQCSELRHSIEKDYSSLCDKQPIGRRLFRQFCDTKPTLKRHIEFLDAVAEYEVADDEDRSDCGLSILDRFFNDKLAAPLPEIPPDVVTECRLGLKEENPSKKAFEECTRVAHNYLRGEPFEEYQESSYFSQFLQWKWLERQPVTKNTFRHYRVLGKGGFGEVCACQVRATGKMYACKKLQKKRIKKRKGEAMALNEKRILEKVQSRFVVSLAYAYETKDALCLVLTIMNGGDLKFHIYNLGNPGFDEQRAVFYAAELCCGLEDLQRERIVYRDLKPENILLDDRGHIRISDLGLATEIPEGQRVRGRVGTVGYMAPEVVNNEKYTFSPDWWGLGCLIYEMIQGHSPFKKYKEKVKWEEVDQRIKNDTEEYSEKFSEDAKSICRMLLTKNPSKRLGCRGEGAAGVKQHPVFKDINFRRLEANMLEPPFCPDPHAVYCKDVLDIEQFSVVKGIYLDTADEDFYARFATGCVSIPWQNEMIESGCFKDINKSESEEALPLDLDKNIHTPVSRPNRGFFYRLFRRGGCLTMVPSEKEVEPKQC
The target of assay [7] is T5, Beta-adrenergic receptor kinase 1 (Homo sapiens, UniProt P25098).
T5 sequence (P25098 whole entry): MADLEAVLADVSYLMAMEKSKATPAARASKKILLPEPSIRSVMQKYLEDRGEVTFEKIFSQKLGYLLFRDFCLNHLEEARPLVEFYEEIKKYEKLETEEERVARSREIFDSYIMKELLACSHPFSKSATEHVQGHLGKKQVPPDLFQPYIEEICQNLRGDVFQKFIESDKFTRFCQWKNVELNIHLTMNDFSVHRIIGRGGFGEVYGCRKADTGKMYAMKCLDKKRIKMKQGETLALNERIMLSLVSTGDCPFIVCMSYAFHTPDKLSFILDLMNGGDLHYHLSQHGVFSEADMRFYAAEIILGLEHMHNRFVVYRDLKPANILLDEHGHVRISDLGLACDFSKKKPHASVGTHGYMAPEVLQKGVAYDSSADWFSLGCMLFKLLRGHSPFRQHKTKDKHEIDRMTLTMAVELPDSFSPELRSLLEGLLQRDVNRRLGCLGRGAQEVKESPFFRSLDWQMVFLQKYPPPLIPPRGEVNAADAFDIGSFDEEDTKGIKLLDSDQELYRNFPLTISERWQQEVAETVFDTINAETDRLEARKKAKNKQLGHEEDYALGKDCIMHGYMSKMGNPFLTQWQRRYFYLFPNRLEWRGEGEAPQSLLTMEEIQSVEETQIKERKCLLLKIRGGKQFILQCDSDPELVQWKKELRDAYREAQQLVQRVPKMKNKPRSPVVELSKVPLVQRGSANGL
As to the kind of experiment: Inhibition of human GRK2 using casein as substrate in presence of [gamma33P]ATP by radiometric hotspot kinase assay.

Chain of Focal adhesion kinase 1 (Q05397 whole entry, the tested form may be a part): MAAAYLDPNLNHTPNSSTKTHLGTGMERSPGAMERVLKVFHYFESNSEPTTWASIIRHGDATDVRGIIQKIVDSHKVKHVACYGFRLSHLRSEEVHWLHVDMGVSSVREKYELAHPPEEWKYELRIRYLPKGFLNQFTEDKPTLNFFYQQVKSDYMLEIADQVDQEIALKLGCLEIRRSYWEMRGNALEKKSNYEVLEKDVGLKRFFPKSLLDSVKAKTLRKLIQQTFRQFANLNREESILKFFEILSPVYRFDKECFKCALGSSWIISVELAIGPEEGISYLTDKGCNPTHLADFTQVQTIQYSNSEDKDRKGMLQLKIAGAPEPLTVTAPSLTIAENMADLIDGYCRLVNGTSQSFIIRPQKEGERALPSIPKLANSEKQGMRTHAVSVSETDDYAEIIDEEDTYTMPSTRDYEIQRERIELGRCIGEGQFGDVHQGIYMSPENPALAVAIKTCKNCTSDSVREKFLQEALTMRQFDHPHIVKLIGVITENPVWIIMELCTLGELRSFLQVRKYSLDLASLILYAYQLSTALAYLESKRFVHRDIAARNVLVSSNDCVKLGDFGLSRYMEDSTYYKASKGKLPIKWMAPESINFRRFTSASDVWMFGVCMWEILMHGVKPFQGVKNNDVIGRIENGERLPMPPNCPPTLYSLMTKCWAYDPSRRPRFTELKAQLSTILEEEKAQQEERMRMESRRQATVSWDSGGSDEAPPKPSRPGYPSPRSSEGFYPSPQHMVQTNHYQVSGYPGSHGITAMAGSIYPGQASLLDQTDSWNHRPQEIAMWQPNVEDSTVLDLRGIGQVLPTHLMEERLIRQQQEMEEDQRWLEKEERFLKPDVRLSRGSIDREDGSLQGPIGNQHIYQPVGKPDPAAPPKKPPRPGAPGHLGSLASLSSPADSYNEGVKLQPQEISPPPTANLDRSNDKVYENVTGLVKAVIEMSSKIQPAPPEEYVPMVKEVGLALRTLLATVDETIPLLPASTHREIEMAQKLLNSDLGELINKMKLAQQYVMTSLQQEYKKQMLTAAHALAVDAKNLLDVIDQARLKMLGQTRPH

The IC50 is the concentration that inhibits the measured activity by half. For `CCc1cc(Nc2nc(NCc3ccc(Cl)cc3OC)nc3cccc(OC)c23)n[nH]1`, the IC50 in assay [1] worked out at 30 nM; on Focal adhesion kinase 1 it was 220 nM; at Rhodopsin kinase GRK7, 6.4 nM; in assay [2], 720 nM; at Aurora kinase A it was 8.9 µM; in assay [3], 8 nM. Besides, the IC50 in assay [4] is 3.8 nM; in [5] it was above 10 µM; on Rhodopsin kinase GRK1 it was 52 nM; in assay [6], 22 nM; in assay [7] it was above 10 µM.
